Where “and” joins values, the source holds several entries; their conditions need not be identical. Equal entries are not always repeated.
Legend:
[1] = Loading of hydroxypropyl cyclodextrin solubilized SN-38 into LUV containing acetate-PEI salt; format: physicochemical; conditions: LUV 20 mM total lipid, 12 hours at room temperature
Procedure: Lipids are dissolved in ethanol at a concentration of 500 mM POPC/Cholesterol/PEG-DSPE: 3/2/0.15 (591 mg/mL total lipid) at 65° C. and the 9 volumes of the trapping agent solution, polyethyleneimine (PEI) MW 1300 titrated to pH 7.4 with glacial acetic acid to form the acetate polyethyleneimine salt, is heated to 65° C. then added to the ethanol/lipid solution also at 65° C. This mixture is vortexed and transferred to a 10 mL thermostatically controlled (65° C.) Lipex Extruder. The LUV are formed by extruding 10 times through polycarbonate membranes having 0.1 um pores. After extrusion, the LUV are cooled on ice. A transmembrane electrochemical gradient is formed by placing the liposomes in dialysis tubing having a molecular weight cut off of 12,000-14,000. The samples are dialyzed against 5 mM HEPES, 10% sucrose pH 6.5 (stirring at 4° C.) at volume that is 100-fold greater than the liposome sample volume. The dialysate is changed after 2 h then 4 more times after 12 h each. The conductivity of the liposome solution was measured and was indistinguishable from the dialysis medium ˜40 μS/cm.
The LUV (20 mM total lipid containing a greater concentration of acetate-PEI salt on the inside than on the outside) are mixed with the hydroxypropyl cyclodextrin solubilized SN-38 (24 mg/mL hydroxylpropylcyclodextrin and 2 mg/mL SN-38) and allowed to incubate for 12 hours at room temperature. […]

[2] = Encapsulation of aripiprazole from Abilify (SBECD solution) into LUV, liquid/liquid protocol; format: physicochemical; conditions: LUV HSPC/Cholesterol/PEG-DSPE
Procedure: (§1) A portion of the lyophilized cake of GEODON® (Pfizer) was weighed out and dissolved in deionized water. The amount of the active ingredient (ziprasidone) was calculated by multiplying the cake weight by 0.0625 and added to liposomes from a 1 mg/mL solution. In certain experiments the lyophilized cake was reconstituted with the aqueous liposome preparation at defined lipid to drug ratios (liquid/liquid system). In other cases the lyophilized cake was directly rehydrated with the liposome suspension (liquid/solid system). The LUV were diluted with 5 mM Hepes, 10% sucrose pH 6.5. The liposome/drug solution was transferred to a 65° C. bath and swirled every 30 s for the first 3 min and then swirled every 5 min over a total heating time of 30 min. After heating for 30 min all samples were placed on ice for 15 min. the loaded liposomes were vortexed and 100 μL of sample was kept as the “before column” and the rest purified by ion exchange chromatography and gel filtration chromatography. Amberlite IRA-67 anion exchange resin was prepared by washing with 1N NaOH, followed by 3 washes with ddH2O and 3 washes with 3N HCl. The resin was exhaustively washed with dH2O until the pH of the supernatant was neutral. The SBCD was removed by adding 70 mg of resin to the eppendorf containing the liposomes and mixed well. The LUV solution was then purified by gel filtration chromatography (Sephadex G25) to remove residual extraliposomal drug. The turbid liposome fraction was collected and analyzed by HPLC.
ABILIFY® Injection is available in single-dose vials as a ready-to-use, 9.75 mg/1.3 mL (7.5 mg/mL) clear, colorless, sterile, aqueous solution for intramuscular use only. […] The active ingredient in Abilify® (Bristol-Myers), aripiprazole (7.5 mg/mL) was introduced to the LUV (HSPC/Cholesterol/PEG-DSPE: 3/2/0.15 mole ratio) at a drug to total lipid ratio of 50 g drug/mol HSPC (drug to total lipid ratio (wt/wt) of 0.12) or 100 g/mol (0.24 wt/wt) or 200 g/mol (0.48 wt/wt). […]

[3] = Encapsulation of ziprasidone from Geodon (SBCD complex) into ammonium sulfate LUV liposomes, HPLC after purification; format: physicochemical; conditions: 65° C. 30 min; for % ziprasidone entrapped in liposome from suspension of ziprasidone: liquid/liquid system; for % ziprasidone entrapped in liposome from reconstitution of Geodon cake: liquid/solid system
Procedure: Alternatively, lipids were dissolved in ethanol at a concentration of 500 mM HSPC/Cholesterol/PEG-DSPE: 3/2/0.15 (591 mg/mL total lipid) at 65° C. and the 9 volumes of the trapping agent solution heated to 65° C. was added to the ethanol/lipid solution also at 65° C. and the mixture was vortexed and transferred to a 10 mL thermostatically controlled (65° C.) Lipex Extruder. The LUV were formed by extruding 10 times through polycarbonate membranes having 0.1 um pores. After extrusion the liposomes were cooled on ice. The transmembrane electrochemical gradient was formed by purification of the liposomes by dialysis in dialysis tubing having a molecular weight cut off of 12,000-14,000. The samples are dialyzed against 5 mM HEPES, 10% sucrose pH 6.5 (stirring at 4° C.) at volume that is 100 fold greater than the sample volume. The dialysate was changed after 2 h then 4 more times after 12 h each. The conductivity of the liposome solution was measured and was indistinguishable from the dialysis medium […].
The HPLC analysis of all other drugs used (such as ziprasidone, ariprazole, voriconazole etc) was performed on the same system as described for analysis of cholesterol. The mobile phase consists of −A=0.1% TFA, B=0.1% TFA/MeOH with a gradient elution starting at 40% B and increasing to 70% B in 7 min with 6 min equilibration back to 40% B. The flow rate is 1.0 mL/min, column temperature is 30 C, 10 μL injection and detection by absorbance at 254 nm. The retention times were as follows: ziprasidone 5.73 min, ariprazole 8.12 min, voriconazole 8.81 min.
as §1

[4] = Incorporation of maropitant from Cerenia (SBCD) into lyophilized MLV with encapsulated triethylamine sulfate; format: physicochemical; conditions: MLV POPC/Chol/DSPG, 60° C. 30 minutes
Procedure: Maropitant citrate is used for the prevention of acute vomiting in dogs and cats. The MLV formulation described in example 4 is prepared with 250 mM triethylamine sulfate in place of ammonium sulfate. The formulation is lyophilized to provide a cake consisting of 120 mg sucrose and a 1.2 μmoles total lipid of a liposome with a lipid composition of POPC/Chol/DSPG mole ratio 3/2/0.15 with a higher concentration of triethylamine sulfate on the inside than on the outside. The contents of the 20 mL Cerenia® Injectable Solution vial which contains 10 mg maropitant, 63 mg sulphobutylether-beta-cyclodextrin, 3.3 mg meta-cresol per mL is slowly added to the vial of lyophilized liposomes and the vial is slowly rotated to rehydrate the MLV at room temperature. The milky white mixture is allowed to stand at 60° C. for 30 minutes. The percent of the maropitant that is incorporated into the liposome is about 60% of the total maropitant in the vial. […] Approximately 40% of the drug remains associated with the SBCD. This formulation is suitable for subcutaneous injection to prevent vomiting associated with chemotherapy.

[5] = Loading of carfilzomib from the lyophilized Kyprolis vial into the core of added LUV; format: physicochemical
Procedure: A 30 mL preparation of LUVs composed of HSPC/Cholesterol/PEG2000-DSPE at lipid concentration of 15 mM lipid (circa 300 mg lipid) is prepared by the extrusion process through 100 nm polycarbonate membranes in a 250 mM ammonium sulfate solution to yield a 100 nm diameter LUV suspension of encapsulated ammonium sulfate. The LUV are dialyzed against 500 volumes of 0.15 M NaCl to remove non-encapsulated ammonium sulfate. The liposome suspension is then passed through a 0.2 micron sterile membrane into a sterile tube. The liposome solution (29 mL) is added aseptically to the vial containing 60 mg of carfilzomib at room temperature. The vial is gently mixed not shaken, for about 1 minute, or until the cake or powder is completely solubilized. The rehydrated solid is incubated for 40 minutes at 37° C. The carfilzomib is substantially loaded (>60%) into the core of the liposome at the end of the incubation period. The 100 nm diameter of the liposomes is not altered by this rehydration incubation process. The temperature of the vial is then reduced to 4° C. until the mixture of CD, drug-loaded liposome are injected into the subject.
The pharmacokinetic behavior of preparation of carfilzomib can be easily modulated by adjusting the amount of LUV containing ammonium sulfate or triethylamine sulfate that are added to the vial of Kyprolis®. […]

[6] = cited from earlier work
[7] = input drug-to-lipid 100 ug/umol
[8] = input drug-to-lipid 200 ug/umol

## CCc1c2c(nc3ccc(O)cc13)-c1cc3c(c(=O)n1C2)COC(=O)[C@]3(O)CC [SN-38, 7-Ethyl-10-Hydroxy-Camptothecin]
[1]
  SN-38 transferred into the liposome, % of the added SN-38: approximately 50%

## O=C1CCc2ccc(OCCCCN3CCN(c4cccc(Cl)c4Cl)CC3)cc2N1 [aripiprazole]
[2]; input drug-to-lipid 50 ug/umol
  % aripiprazole entrapped in liposome when transferred from Abilify: 60.16 ± 3.57%
[2]; [7]
  % aripiprazole entrapped in liposome when transferred from Abilify: 48.4% and 48.36 ± 3.78%
[2]; [8]
  % aripiprazole entrapped in liposome when transferred from Abilify: 43.2% and 43.22 ± 2.09%

## O=C1Cc2cc(CCN3CCN(c4nsc5ccccc45)CC3)c(Cl)cc2N1 [ziprasidone]
[3]; input drug-to-lipid 50 ug/umol
  % ziprasidone entrapped in liposome from suspension of ziprasidone: 87.92 ± 2.35%
  % ziprasidone entrapped in liposome from reconstitution of Geodon cake: 90.42 ± 2.91%
[3]; input drug-to-lipid 50 ug/umol, listed as Geodon
  % ziprasidone entrapped in liposome from reconstitution of Geodon cake: 90.4%
[3]; [7]
  % ziprasidone entrapped in liposome from suspension of ziprasidone: 84.24 ± 3.14%
  % ziprasidone entrapped in liposome from reconstitution of Geodon cake: 75.50 ± 2.91%
[3]; input drug-to-lipid 100 ug/umol, listed as Geodon
  % ziprasidone entrapped in liposome from reconstitution of Geodon cake: 75.5%
[3]; [8]
  % ziprasidone entrapped in liposome from suspension of ziprasidone: 80.38 ± 3.61%
  % ziprasidone entrapped in liposome from reconstitution of Geodon cake: 62.68 ± 3.27%
[3]; input drug-to-lipid 200 ug/umol, listed as Geodon
  % ziprasidone entrapped in liposome from suspension of ziprasidone: 80.4%
[3]; input drug-to-lipid 400 ug/umol
  % ziprasidone entrapped in liposome from reconstitution of Geodon cake: 67.40 ± 3.88%
[3]; input drug-to-lipid 400 ug/umol, listed as Geodon
  % ziprasidone entrapped in liposome from reconstitution of Geodon cake: 67.4%
[3]; input drug-to-lipid 800 ug/umol
  % ziprasidone entrapped in liposome from reconstitution of Geodon cake: 41.38 ± 0.81%

## COc1ccc(C(C)(C)C)cc1CN[C@H]1C2CCN(CC2)[C@H]1C(c1ccccc1)c1ccccc1 [maropitant]
[4]
  percent of the drug remaining associated with the SBCD: Approximately 40%
  percent of the maropitant incorporated into the liposome, of total maropitant in the vial: about 60%
  resulting drug to lipid ratio: about 140 grams/mole lipid

## CC(C)C[C@H](NC(=O)[C@H](CCc1ccccc1)NC(=O)CN1CCOCC1)C(=O)N[C@@H](Cc1ccccc1)C(=O)N[C@@H](CC(C)C)C(=O)[C@@]1(C)CO1 [carfilzomib]
[5]; Kyprolis vial 60 mg + 29 mL LUV (circa 300 mg lipid), ammonium sulfate, 40 minutes at 37° C.
  carfilzomib loaded into the core of the liposome: > 60%
[5]; liposomes added decreased from 300 mg to 200 mg of total lipid
  amount of carfilzomib that remains complexed to the CD, fraction of total amount in the vial: about one-half
[6]
  solubility in water: less than 10 micrograms/mL
